Results on six molecules are retold here after article PMC9822021, “Biological Activity of Amidino-Substituted Imidazo [4,5-b]pyridines” (Molecules, 2022).

Series [1] can be described thus: in vitro. As to conditions: dog.
A further series deals with HSV-1 KOS. Kind of series: Antiviral CPE reduction assay. In kind it is cell-based, herpes simplex virus-1. As to conditions: Human alphaherpesvirus 1.
For a further series, the system named is S. aureus ATCC 29213. Kind of series: Antibacterial activity in vitro, broth microdilution. In kind it is cell-based. As to conditions: Staphylococcus aureus, ATCC29213; broth microdilution (CLSI), 16–24 h at 37 °C. The protocol: (§1) Synthesized compounds were prepared as 10 mM DMSO solutions and tested in a final concentration range of 100–0.2 µM [34].
(§2) Broth microdilution testing was performed according to CLSI (Clinical Laboratory Standards Institute) guidelines. MIC (minimal inhibitory concentration) values were defined as the last tested concentration of the compound at which there was no visible growth of bacteria. Inoculums for each microorganism were prepared using the direct colony suspension method, where broth solutions that achieved turbidity equivalent to 0.5 McFarland standard were additionally diluted 100× with Ca-adjusted MH media (Becton Dickinson).

The subject of a further series is S. Pneumoniae ATCC 49619. The description is as above. It is filed as cell-based. As to conditions: Streptococcus pneumoniae, ATCC49619; broth microdilution (CLSI), 16–24 h at 37 °C. The protocol:
as §1, §2
Background: In broth dilution the organism is exposed to a series of concentrations in liquid medium.

The test system of a further series is E. coli ATCC 25922. The description is as above. It is filed as cell-based. As to conditions: Escherichia coli, ATCC25922; broth microdilution (CLSI), 16–24 h at 37 °C. How it is done: as §1, §2
Series [2] deals with SW620 colon carcinoma cells. Kind of series: In vitro antiproliferative activity, MTT assay. It is filed as cell-based. As to conditions: Homo sapiens, SW-620, 72 h. An excerpt:
(§3) Human cancer cell lines used in this manuscript, namely Capan-1, HCT-116, NCI-H460, LN-229, HL-60, K-562, Z-138, SW620, PC3 and HeLa, were acquired from the American Type Culture Collection (ATCC, Manassas, VA, USA), while the DND-41 cell line was purchased from the Deutsche Sammlung von Mikroorganismen und Zellkulturen (DSMZ Leibniz-Institut, Germany). Culture media were purchased from Gibco Life Technologies, USA, and supplemented with 10% fetal bovine serum (HyClone, GE Healthcare Life Sciences, Chicago, IL, USA), except for the media for SW620, PC3 and HeLa cells, which were purchased from Sigma.
(§4) Adherent cell lines LN-229, HCT-116, NCI-H460 and Capan-1 cells were seeded at a density between 500 and 1500 cells per well in 384-well tissue culture plates (Greiner). […]. Cells were incubated for 72 h with compounds and were then analyzed using the CellTiter 96® AQueous One Solution Cell Proliferation Assay (MTS) reagent (Promega) according to the manufacturer’s instructions. Absorbance of the samples was measured at 490 nm using a SpectraMax Plus 384 (Molecular Devices), and OD values were used to calculate the 50% inhibitory concentration (IC50). Compounds were tested in two independent experiments. SW620, PC3 and HeLa cells were seeded in 96-well microtiter plates at 1 × 10^4 to 3 × 10^4 cells/mL, depending on the doubling times of the specific cell line. Test agents were then added in five 10-fold dilutions (10^−8 to 10^−4 M). Working dilutions were freshly prepared on the day of testing. After 72 h of incubation, the cell growth rate was evaluated using the MTT assay as described previously. Absorbance of the samples was measured at 570 nm, and OD values were used to calculate the 50% inhibitory concentration (IC50). Each test was performed in quadruplicate in at least two individual experiments.
(In general: Tetrazolium dyes change colour on reduction, which living cells bring about.)

For series [3], the system named is HeLa cervical carcinoma cells. Kind of series: In vitro antiproliferative activity, MTT assay. It is filed as cell-based. As to conditions: Homo sapiens, 72 h.
Source text: as §3, §4

Series [4] has as its system PC3 prostate carcinoma cells. In words: In vitro antiproliferative activity, MTT assay. In kind it is cell-based. As to conditions: Homo sapiens, 72 h.
Source text: as §3, §4

The subject of series [5] is Capan-1 pancreatic adenocarcinoma cells. In words: In vitro antiproliferative activity, MTS proliferation assay. In kind it is cell-based. As to conditions: Homo sapiens, 72 h. The protocol: (§5) Culture media were purchased from Gibco Life Technologies, USA, and supplemented with 10% fetal bovine serum (HyClone, GE Healthcare Life Sciences, Chicago, IL, USA), except for the media for SW620, PC3 and HeLa cells, which were purchased from Sigma.
(§6) Cells were incubated for 72 h with compounds and were then analyzed using the CellTiter 96® AQueous One Solution Cell Proliferation Assay (MTS) reagent (Promega) according to the manufacturer’s instructions. […] Compounds were tested in two independent experiments. SW620, PC3 and HeLa cells were seeded in 96-well microtiter plates at 1 × 10^4 to 3 × 10^4 cells/mL, depending on the doubling times of the specific cell line. Test agents were then added in five 10-fold dilutions (10^−8 to 10^−4 M). Working dilutions were freshly prepared on the day of testing. After 72 h of incubation, the cell growth rate was evaluated using the MTT assay as described previously. […] Each test was performed in quadruplicate in at least two individual experiments.

In series [6] the test system is HL-60 acute myeloid leukemia cells. The series is described as above. It is filed as cell-based. As to conditions: Homo sapiens, 72 h. How it is done: as §5, §6
For series [7], the system named is DND-41 acute lymphoblastic leukemia cells. Described as above. It is filed as cell-based. As to conditions: Homo sapiens, DND41, 72 h. The protocol:
as §5, §6

Series [8] deals with Z-138 non-Hodgkin lymphoma cells. The series is described as above. In kind it is cell-based, human. As to conditions: Homo sapiens, Z-138, 72 h.
Source text: as §3, §4

For series [9], the system named is NCI-H460 lung carcinoma cells. Described as above. In kind it is cell-based. As to conditions: Homo sapiens, 72 h.
Source text: as §3, §4

Series [10] relates to LN-229 glioblastoma cells. The series is described as above. It is filed as cell-based. As to conditions: Homo sapiens, 72 h.
Source text: as §3, §4

Series [11] has as its system K-562 chronic myeloid leukemia cells. The description is as above. As to conditions: Homo sapiens, K562, 72 h. In kind it is cell-based.
Source text: as §3, §4

The subject of series [12] is HCT-116 colorectal carcinoma cells. Described as above. It is filed as cell-based. As to conditions: Homo sapiens, 72 h.
Source text: as §3, §4

Series [13] is described as follows: in vitro. As to conditions: human.
Series [14] can be described thus: in vitro. As to conditions: human. This is another data set of the same source.
Another series has as its system E. coli Efflux Del. In words: microbe, parasite or virus in culture. It is filed as cell-based. As to conditions: Escherichia coli, read-out: MIC E. coli Efflux Del. The protocol: as §1, §2
For another series, the system named is Zika mr766. In words: Antiviral CPE reduction assay. It is filed as cell-based. As to conditions: Zika virus, Huh-7, Huh7 cells.
Another series has as its system HCoV NL63. In words: Antiviral CPE reduction assay. It is filed as cell-based. As to conditions: Human coronavirus NL63, Huh-7, Huh7 cells.
The subject of a further series is Sindbis. In words: Antiviral CPE reduction assay. In kind it is cell-based. As to conditions: Sindbis virus, Huh-7, Huh7 cells.
In another series the test system is RSV A Long. In words: Antiviral CPE reduction assay. In kind it is cell-based, respiratory syncytial virus A. As to conditions: human respiratory syncytial virus, HEL 299 cells.
Another series has as its system YFV 17D. In words: microbe, parasite or virus in culture. It is filed as cell-based. As to conditions: Yellow fever virus, Huh-7, read-out: EC50 YFV 17D Huh7.
For the next series, the system named is HCoV OC43. Kind of series: Antiviral CPE reduction assay. It is filed as cell-based, human coronavirus OC43. As to conditions: Betacoronavirus 1, OC43, HEL 299 cells.
Another series concerns HCoV 229E. In words: Antiviral CPE reduction assay. It is filed as cell-based. As to conditions: Human coronavirus 229E, HEL 299 cells.
The subject of series [15] is Influenza H1N1 (A/Ned/378/05). Kind of series: Antiviral CPE reduction assay. It is filed as cell-based. As to conditions: Influenza A virus, MDCK cells.
Series [16] relates to Influenza H3N2 (A/HK/7/87). In words: Antiviral CPE reduction assay. As to conditions: Influenza A virus, MDCK cells. In kind it is cell-based.
The test system of series [17] is Influenza B (B/Ned/537/05). In words: Antiviral CPE reduction assay. In kind it is cell-based. As to conditions: Influenza B virus, MDCK cells.

In general, EC50 refers to the concentration needed to bring the measured effect to its halfway point. With `O=c1[nH]c(=O)n([C@H]2C[C@H](O)[C@@H](CO)O2)cc1/C=C/Br` [BVDU, brivudine, reference compound], the CC50 in “in vitro [1]” was greater than 100 µM. Besides, in the series with HSV-1 KOS, the EC50 was 0.05 µM.

The term IC50 denotes the midpoint of a concentration-inhibition curve. The melting point is the temperature of the solid-liquid transition. Turning to `Cn1c(-c2ccccc2)nc2cc(Br)cnc21` [Compound 18, 6-Bromo-3-methyl-2-phenyl-3H-imidazo[4,5-b]pyridine], the melting point is 214 to 215 °C. This molecule also showed an MIC in the series on S. aureus ATCC 29213 greater than 64 µM. Moreover, the MIC against S. Pneumoniae ATCC 49619 was greater than 64 µM. For the same molecule, in the series with E. coli ATCC 25922, the MIC was greater than 64 µM. In addition, the IC50 in series [2] was greater than 100 µM. In series [3], this molecule showed an IC50 of 48 ± 0.2 µM. The IC50 in series [4] is greater than 100 µM. The IC50 in [5] is greater than 100 µM. The IC50 in series [6] was greater than 100 µM. This molecule also displayed an IC50 in [7] greater than 100 µM. In addition, the IC50 in series [8] was greater than 100 µM. Further, the CC50 in “in vitro [1]” is greater than 100 µM. This molecule returned an IC50 in series [9] greater than 100 µM. In series [10], the IC50 is greater than 100 µM. Besides, in [11], the IC50 is greater than 100 µM. Also, in series [12], the IC50 is greater than 100 µM. For the same molecule, the CC50 in the series “in vitro [13]” was greater than 100 µM. For the same molecule, the CC50 in “in vitro [14]” was greater than 100 µM. Also, the MIC with E. coli Efflux Del was greater than 64 µM.

Molecule `Cn1c(-c2ccc(C#N)cc2)nc2cc(Br)cnc21` [Compound 19, 4-(6-Bromo-3-methyl-3H-imidazo[4,5-b]pyridin-2-yl)benzonitrile] gave a melting point of 234 to 235 °C. The molecule further came in with an MIC with S. aureus ATCC 29213 greater than 64 µM. This molecule displayed an MIC against S. Pneumoniae ATCC 49619 greater than 64 µM. The same molecule came in with an MIC in the series on E. coli ATCC 25922 greater than 64 µM. The same molecule had an IC50 in [2] of 63.8 ± 7.4 µM. Further, the IC50 in [3] was determined as 26.1 ± 0.01 µM. This molecule also gave an IC50 in series [4] of 28.8 ± 15 µM. Besides, the IC50 in series [5] was greater than 100 µM. In series [6], this molecule came in with an IC50 greater than 100 µM. This molecule returned an IC50 in [7] greater than 100 µM. Also, the IC50 in series [8] was greater than 100 µM. Besides, the CC50 in “in vitro [1]” was greater than 100 µM. The same molecule registered an IC50 in series [9] greater than 100 µM. For the same molecule, the IC50 in [10] is greater than 100 µM. In addition, the IC50 in series [11] is greater than 100 µM. Also, the IC50 in series [12] was greater than 100 µM. In addition, in the series “in vitro [13]”, the CC50 was greater than 100 µM. Also, the CC50 in the series “in vitro [14]” is greater than 100 µM. Also, the MIC with E. coli Efflux Del was greater than 64 µM.

On to `CCC(CC)COC(=O)[C@H](C)N[P@](=O)(OC[C@H]1O[C@@](C#N)(c2ccc3c(N)ncnn23)[C@H](O)[C@@H]1O)Oc1ccccc1` [Remdesivir, remdesivir, reference compound], for which the EC50 is 0.7 µM with Zika mr766; 0.03 µM in the series with HCoV NL63; greater than 10 µM in the series on Sindbis; 0.03 ± 0.01 µM with RSV A Long (CPE reduction); 6.2 µM with YFV 17D; 0.06 µM in the series with HCoV OC43. Moreover, the response in the series with HCoV 229E was half-maximal at 0.06 µM (EC50). For the same molecule, the CC50 in “in vitro [13]” and in “in vitro [14]” was greater than 10 µM throughout.

For the molecule `NC(=O)c1ncn([C@@H]2O[C@H](CO)[C@@H](O)[C@H]2O)n1` [Ribavirin, ribavirin, reference compound], the EC50 was 10.5 ± 3.8 µM in series [15]; greater than 250 µM in the series on Zika mr766; greater than 250 µM with HCoV NL63; 4 ± 2.7 µM in [16]; 10.8 ± 2.1 µM in the series with RSV A Long (HEL 299, CPE reduction); 2.8 ± 1.8 µM in series [17]. Also, the figures for the EC50 with YFV 17D, with HCoV OC43 and in the series with HCoV 229E were greater than 250 µM, 170 µM and 82.6 µM, respectively. For the same molecule, in “in vitro [1]”, the CC50 is 80.2 ± 18.6 µM.

On to `CC(=O)N[C@H]1[C@H]([C@H](O)[C@H](O)CO)OC(C(=O)O)=C[C@@H]1N=C(N)N` [Zanamivir, zanamivir, reference compound], for which the EC50 in series [15] turned out to be 0.13 ± 0.04 µM; in series [16] it was 16.8 ± 6.8 µM; in series [17], 0.05 ± 0.03 µM. This molecule returned a CC50 in “in vitro [1]” greater than 100 µM.
